Data: ChEMBL document CHEMBL4725251, “Structure-activity relationships of tubulysin analogues” (Bioorg Med Chem Lett, 2020)

Legend:
[1] = test system: L-540; assay: Antiproliferative against human L540cy cells incubated for 96 hrs by cellTiter-Glo assay; assay type: functional, cell-based; conditions: L-540, 96 h
[2] = test system: DEL; assay: Antiproliferative against human DEL cells incubated for 96 hrs by cellTiter-Glo assay; assay type: functional, cell-based
[3] = Antiproliferative against human DEL/BVR cells incubated for 96 hrs by cellTiter-Glo assay; assay type: functional, cell-based
[4] = target: Tubulin (Homo sapiens) (UniProt P68371+Q9H4B7+P0DPH7+P68366+Q13509+Q71U36+P04350+Q3ZCM7+P07437+P68363+Q9BQE3+Q6PEY2+Q13885+Q9BVA1+Q9BUF5); assay: Binding affinity to tubulin (unknown origin) by fluorescence polarization displacement assay; assay type: protein-complex assay
[5] = test system: L-428; assay: Antiproliferative against human L428 cells incubated for 96 hrs by cellTiter-Glo assay; assay type: functional, cell-based; conditions: L-428, 96 h

SMILES | EC50 [1] | EC50 [2] | EC50 [3] | relative binding affinity (RBA) [4] | EC50 [5]
CCO[C@H](C[C@H](C(C)C)N(C)C(=O)[C@H](C)NC(=O)[C@H]1CCCCN1C)c1nc(C(=O)N[C@@H](Cc2ccccc2)C[C@H](C)C(=O)O)cs1 | 110 nM | 21 nM | 420 nM | 0.03 | 
CCO[C@H](C[C@H](C(C)C)N(C)C(=O)[C@@H](NC(=O)[C@H]1CCCCN1C)[C@H](C)OC(C)(C)C)c1nc(C(=O)N[C@@H](Cc2ccccc2)C[C@H](C)C(=O)O)cs1 | 81 nM | 17 nM | 123 nM | 0.06 | 
CCO[C@H](C[C@H](C(C)C)N(C)C(=O)CNC(=O)[C@H]1CCCCN1C)c1nc(C(=O)N[C@@H](Cc2ccccc2)C[C@H](C)C(=O)O)cs1 | 4600 nM | 3300 nM | 9600 nM |  | 
CCO[C@H](C[C@H](C(C)C)N(C)C(=O)[C@@H](NC(=O)[C@H]1CCCCN1C)[C@H](C)CC)c1nc(C(=O)N[C@@H](Cc2ccccc2)C[C@H](C)C(=O)O)cs1 | 13 nM | 3 nM | 61 nM | 0.007 | 
C#CCO[C@H](C[C@H](C(C)C)N(C)C(=O)[C@@H](NC(=O)[C@H]1CCCCN1C)[C@@H](C)CC)c1nc(C(=O)N[C@@H](Cc2ccccc2)C[C@H](C)C(=O)O)cs1 | 0.17 nM |  |  | 0.59 | 0.41 nM
CCC(=O)O[C@H](C[C@H](C(C)C)N(C)C(=O)[C@@H](NC(=O)[C@H]1CCCCN1C)[C@@H](C)CC)c1nc(C(=O)N[C@@H](Cc2ccccc2)C[C@H](C)C(=O)O)cs1 | 0.06 nM |  |  | 0.97 | 0.04 nM
CCO[C@H](C[C@H](C(C)C)N(C)C(=O)[C@@H](NC(=O)[C@H]1CCCCN1C)C1CCCC1)c1nc(C(=O)N[C@@H](Cc2ccccc2)C[C@H](C)C(=O)O)cs1 | 0.2 nM | 0.1 nM | 1 nM | 0.45 | 
CCO[C@H](C[C@H](C(C)C)N(C)C(=O)[C@@H](NC(=O)[C@H]1CCCCN1C)[C@@H](C)CC)c1nc(C(=O)N[C@@H](Cc2ccccc2)C[C@H](C)C(=O)O)cs1 | 0.4 nM | 0.04 nM | 1 nM | 0.27 | 0.13 nM
CC[C@H](C)[C@H](NC(=O)[C@H]1CCCCN1C)C(=O)N(C)[C@H](C[C@@H](OCc1ccccc1)c1nc(C(=O)N[C@@H](Cc2ccccc2)C[C@H](C)C(=O)O)cs1)C(C)C | 0.4 nM |  |  | 0.07 | 0.57 nM
CCO[C@H](C[C@H](C(C)C)N(C)C(=O)[C@@H](NC(=O)[C@H]1CCCCN1C)C1CCC1)c1nc(C(=O)N[C@@H](Cc2ccccc2)C[C@H](C)C(=O)O)cs1 | 24 nM | 13 nM | 89 nM | 0.03 | 
CCO[C@H](C[C@H](C(C)C)N(C)C(=O)[C@@H](NC(=O)C1CCC(F)(F)CN1C)[C@@H](C)CC)c1nc(C(=O)N[C@@H](Cc2ccccc2)C[C@H](C)C(=O)O)cs1 (mixture of isomers) | 15 nM | 9 nM | 66 nM | 0.07 | 
CC[C@H](C)[C@H](NC(=O)[C@H]1CCCCN1C)C(=O)N(C)[C@H](C[C@@H](OC(=O)C(C)C)c1nc(C(=O)N[C@@H](Cc2ccccc2)C[C@H](C)C(=O)O)cs1)C(C)C | 0.1 nM |  |  | 0.36 | 0.12 nM
CCO[C@H](C[C@H](C(C)C)N(C)C(=O)[C@@H](NC(=O)[C@H]1CCCCN1C)C(CC)CC)c1nc(C(=O)N[C@@H](Cc2ccccc2)C[C@H](C)C(=O)O)cs1 | 1 nM | 0.4 nM | 4 nM | 0.2 | 
C=C(C)CO[C@H](C[C@H](C(C)C)N(C)C(=O)[C@@H](NC(=O)[C@H]1CCCCN1C)[C@@H](C)CC)c1nc(C(=O)N[C@@H](Cc2ccccc2)C[C@H](C)C(=O)O)cs1 | 0.06 nM |  |  | 0.43 | 0.12 nM
CCO[C@H](C[C@H](C(C)C)N(C)C(=O)[C@@H](NC(=O)[C@H]1CCCCN1C)[C@@H](C)OC)c1nc(C(=O)N[C@@H](Cc2ccccc2)C[C@H](C)C(=O)O)cs1 | 6 nM | 1 nM | 66 nM | 0.03 | 
CC[C@H](C)[C@H](NC(=O)[C@H]1CCCCN1C)C(=O)N(C)[C@H](C[C@@H](OC(=O)CC(C)C)c1nc(C(=O)N[C@@H](Cc2ccccc2)C[C@H](C)C(=O)O)cs1)C(C)C | 0.06 nM |  |  | 0.26 | 0.11 nM
CC[C@H](C)[C@H](NC(=O)[C@H]1CCCCN1C)C(=O)N(C)[C@H](C[C@@H](OCC(C)=O)c1nc(C(=O)N[C@@H](Cc2ccccc2)C[C@H](C)C(=O)O)cs1)C(C)C | 0.6 nM |  |  | 0.27 | 1 nM
CC[C@H](C)[C@H](NC(=O)[C@H]1CCCCN1C)C(=O)N(C)[C@H](C[C@@H](OC(C)=O)c1nc(C(=O)N[C@@H](Cc2ccccc2)C[C@H](C)C(=O)O)cs1)C(C)C | 0.08 nM |  |  |  | 0.04 nM
CCCC(=O)O[C@H](C[C@H](C(C)C)N(C)C(=O)[C@@H](NC(=O)[C@H]1CCCCN1C)[C@@H](C)CC)c1nc(C(=O)N[C@@H](Cc2ccccc2)C[C@H](C)C(=O)O)cs1 | 0.04 nM |  |  | 0.52 | 0.05 nM
CCO[C@H](C[C@H](C(C)C)N(C)C(=O)[C@@H](NC(=O)[C@@]1(C)CCCN1C)[C@@H](C)CC)c1nc(C(=O)N[C@@H](Cc2ccccc2)C[C@H](C)C(=O)O)cs1 | 1 nM | 0.3 nM | 2 nM | 0.38 | 
CCO[C@H](C[C@H](C(C)C)N(C)C(=O)[C@@H](NC(=O)[C@H]1CCCCN1C)[C@@H](C)OC(C)(C)C)c1nc(C(=O)N[C@@H](Cc2ccccc2)C[C@H](C)C(=O)O)cs1 | 0.1 nM | 0.1 nM | 0.4 nM | 0.83 | 
CCO[C@H](C[C@H](C(C)C)N(C)C(=O)[C@@H](NC(=O)[C@H]1CCCCN1C)[C@H](C)OC)c1nc(C(=O)N[C@@H](Cc2ccccc2)C[C@H](C)C(=O)O)cs1 | 5 nM | 1 nM | 17 nM | 0.001 | 
CCO[C@H](C[C@H](C(C)C)N(C)C(=O)[C@@H](NC(=O)[C@H]1[C@@H]2CC[C@@H](C2)N1C)[C@@H](C)CC)c1nc(C(=O)N[C@@H](Cc2ccccc2)C[C@H](C)C(=O)O)cs1 | 8 nM | 2 nM | 15 nM | 0.08 | 
C=CCO[C@H](C[C@H](C(C)C)N(C)C(=O)[C@@H](NC(=O)[C@H]1CCCCN1C)[C@@H](C)CC)c1nc(C(=O)N[C@@H](Cc2ccccc2)C[C@H](C)C(=O)O)cs1 | 0.12 nM |  |  | 0.88 | 0.15 nM
CCCO[C@H](C[C@H](C(C)C)N(C)C(=O)[C@@H](NC(=O)[C@H]1CCCCN1C)[C@@H](C)CC)c1nc(C(=O)N[C@@H](Cc2ccccc2)C[C@H](C)C(=O)O)cs1 | 0.13 nM |  |  | 0.68 | 0.39 nM
CCO[C@H](C[C@H](C(C)C)N(C)C(=O)[C@@H](NC(=O)C1CN(C)CCN1C)[C@@H](C)CC)c1nc(C(=O)N[C@@H](Cc2ccccc2)C[C@H](C)C(=O)O)cs1 (mixture of isomers) | > 1000 nM |  |  |  | 
CCO[C@H](C[C@H](C(C)C)N(C)C(=O)[C@@H](NC(=O)[C@H]1CCCCN1C)C1CCCCC1)c1nc(C(=O)N[C@@H](Cc2ccccc2)C[C@H](C)C(=O)O)cs1 | 1 nM | 0.2 nM | 6 nM | 0.4 | 
CC[C@H](C)[C@H](NC(=O)[C@H]1CCCCN1C)C(=O)N(C)[C@H](C[C@@H](OC)c1nc(C(=O)N[C@@H](Cc2ccccc2)C[C@H](C)C(=O)O)cs1)C(C)C | 0.12 nM |  |  | 0.42 | 0.48 nM
CCO[C@H](C[C@H](C(C)C)N(C)C(=O)[C@@H](NC(=O)C12CC(CCN1C)C2)[C@@H](C)CC)c1nc(C(=O)N[C@@H](Cc2ccccc2)C[C@H](C)C(=O)O)cs1 | 1 nM | 0.2 nM | 2 nM | 0.23 | 
